This note sets out measurements from patent US8163737B2 (Vertex Pharmaceuticals Incorporated, priority 2006, dated 2012).

Each structure is given as a SMILES string.

One experiment concerns the target endogenous CGRP receptor (Homo sapiens, UniProt O60894+Q16602). Description: CGRP functional antagonism using SK-N-MC-BLA (4C10), β-lactamase transcriptional reporter assay. The conditions noted are these: SK-N-MC (4C10) cells, inhibition of β-lactamase expression in the presence of 200 pM CGRP. In kind it is cell-based. On the technique in general: Reporter assays use an easily measured gene product as a stand-in for the process of interest.

For experiment [1], the target named is T1, CGRP receptor (SK-N-MC membrane) (Homo sapiens, UniProt O60894+Q16602).
T1 construct: Purified SK-N-MC membrane was purchased from Perkin Elmer; purchased Perkin Elmer; host or cells: SK-N-MC membrane
The experiment can be described thus: I125-CGRP binding displacement assay on purified SK-N-MC membrane. As for the experimental part:
Purified SK-N-MC membrane was purchased from Perkin Elmer. The membrane was thawed quickly and placed on ice. The compounds were diluted with CGRP binding solution (25 mM Tris-HCl, pH7.4, 5 mM MgCl2, 0.1% BSA and 0.05% Tween). The membrane was diluted 1:20 with the binding solution and homogenized with Tissue Matster-50 Homogenizer (Omni International) for 30 sec. The homogenized membrane was added to compounds in the binding solution. […] After 2 hour incubation at room temperature, the reaction was stopped by rapid filtration through 0.5% PEI treated GF/C filter plate (Perkin Elmer) and the filter plate was washed with ice-cold washing solution (50 mM Tris HCl, pH7.4, 5 mM MgCl2 and 0.1% BSA) using cell harvestor (Tomtec). The radioactivity of the filter plates were read on Topcount (Packard). The nonspecific binding was determined in the control reaction where 1 uM unlabelled CGRP was preincubated with the membrane prior to I125-CGRP addition. The total binding was determined in the control reaction of the membrane and I125-CGRP in the absence of compound. The percent displacement of I125-CGRP with compounds was calculated using nonspecific and total binding controls. The curve fitting was carried out using MOD3.

T1 sequence (Q16602 23-461): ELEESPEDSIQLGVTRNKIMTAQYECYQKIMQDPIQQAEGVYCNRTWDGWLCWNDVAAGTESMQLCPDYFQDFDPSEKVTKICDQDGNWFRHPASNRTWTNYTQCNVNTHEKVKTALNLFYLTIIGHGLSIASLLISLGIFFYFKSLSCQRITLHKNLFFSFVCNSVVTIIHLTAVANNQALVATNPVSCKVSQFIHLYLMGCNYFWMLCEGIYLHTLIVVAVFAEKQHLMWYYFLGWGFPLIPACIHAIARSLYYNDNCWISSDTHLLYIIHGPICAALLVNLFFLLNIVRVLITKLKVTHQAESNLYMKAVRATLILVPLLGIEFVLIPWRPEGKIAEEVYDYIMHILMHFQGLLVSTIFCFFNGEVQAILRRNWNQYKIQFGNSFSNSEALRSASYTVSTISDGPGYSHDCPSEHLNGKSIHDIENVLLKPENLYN
T1 sequence (O60894 27-148): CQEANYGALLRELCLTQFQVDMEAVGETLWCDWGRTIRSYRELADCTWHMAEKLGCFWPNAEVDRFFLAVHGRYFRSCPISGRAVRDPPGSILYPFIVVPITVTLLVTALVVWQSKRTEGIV
Chain of endogenous CGRP receptor (Q16602 23-461): as the sequence (Q16602 23-461) above
Chain of endogenous CGRP receptor (O60894 27-148): as the sequence (O60894 27-148) above

In the case of `CC(C)(C)CCN1C(=O)[C@H](CC(=O)N2CCC(N3CCc4ccccc4NC3=O)CC2)SC1c1cccc(F)c1N1CCC(F)(F)C1` (stereo partly shown) [Compound 483], the IC50 at endogenous CGRP receptor was over 5000 nM. The molecule further showed an inhibition constant (Ki) in experiment [1] of under 1000 nM.
`CN1CCN(c2ccccc2[C@@H]2S[C@](C)(CC(=O)N3CCC(N4CCc5ccccc5NC4=O)CC3)C(=O)N2CCC(C)(C)C)CC1` [Compound 375]: at endogenous CGRP receptor, the IC50 was under 1000 nM. Moreover, the Ki in experiment [1] was under 1000 nM.
For `CC(C)CCN1C(=O)C(CC(=O)N2CCC(N3Cc4ccccc4NC3=O)CC2)[S+]([O-])C1c1ccc(F)cc1F` (stereo not shown) [Compound 66], the IC50 at endogenous CGRP receptor is under 1000 nM. Further, the Ki in experiment [1] was under 1000 nM.
In the case of `CC(C)(C)CCN1C(=O)[C@H](CC(=O)N2CCC(N3CCc4ccccc4NC3=O)CC2)SC1c1cccc(F)c1N1CCC(O)C1` (stereo partly shown) [Compound 463], on endogenous CGRP receptor, the IC50 lay in the range of 1000 to 5000 nM. This molecule had a Ki in experiment [1] of under 1000 nM.
The corresponding values for `N#Cc1ccccc1C1SC(CC(=O)N2CCC(N3CCc4ccccc4NC3=O)CC2)C(=O)N1CC1CCCCC1` (stereo not shown) [Compound 175] are under 1000 nM and under 1000 nM.
The like results for `CC(C)(C)CCN1C(=O)[C@H](CC(=O)N2CCC(N3CCc4ccccc4NC3=O)CC2)SC1c1cccc(F)c1N1CCC(F)C1` (stereo partly shown) [Compound 481] were, in that order, 1000 to 5000 nM and under 1000 nM.
The like results for `CC(C)(C)CCN1C(=O)C(CC(=O)N2CCC(N3CCc4ccccc4NC3=O)CC2)SC12CCSCC2` (stereo not shown) [Compound 15] were, in that order, under 1000 nM and under 1000 nM.
For the molecule `COCCN1C(=O)[C@H](CC(=O)N2CCC(n3c(=O)[nH]c4ncccc43)CC2)SC1c1cccc(F)c1N1CCN(C(C)(C)C)CC1` (stereo partly shown) [Compound 535], the IC50 on endogenous CGRP receptor was under 1000 nM. The molecule further showed a Ki in experiment [1] of under 1000 nM.
For `CC(C)(C)CCN1C(=O)C(CC(=O)N2CCC(N3Cc4ccccc4NC3=O)CC2)SC12CCc1ccccc12` (stereo not shown) [Compound 317], the IC50 on endogenous CGRP receptor was in the range of 1000 to 5000 nM. This molecule also yielded a Ki in experiment [1] of under 1000 nM.
The corresponding values for `CC(C)(C)CCN1C(=O)[C@H](CC(=O)N2CCC(N3CCc4ccccc4NC3=O)CC2)SC1c1cccc(F)c1N1CCC(N2CCCCC2)CC1` (stereo partly shown) [Compound 550] are under 1000 nM and under 1000 nM.
The like results for `COCCN1C(=O)C(CC(=O)N2CCC(N3Cc4ccccc4NC3=O)CC2)SC1c1ccccc1` (stereo not shown) [Compound 30] were, in that order, 1000 to 5000 nM and under 1000 nM.
The like results for `CN1CCN(c2ccccc2C2N(CCC(C)(C)C)C(=O)C(CC(=O)N3CCC(N4Cc5ccccc5NC4=O)CC3)[S+]2[O-])CC1` (stereo not shown) [Compound 307] were, in that order, under 1000 nM and under 1000 nM.
Regarding `CC(C)(C)CCN1C(=O)[C@H](CC(=O)N2CCC(N3CCc4ccccc4NC3=O)CC2)SC1c1cccc(F)c1N1CC[C@H](O)C1` (stereo partly shown) [Compound 485], on endogenous CGRP receptor, the IC50 lay within 1000 to 5000 nM. The molecule further returned a Ki in experiment [1] of under 1000 nM.
The like results for `CC(C)(C)CCN1C(=O)[C@H](CC(=O)N2CCC(n3c(=O)[nH]c4ncccc43)CC2)SC1c1ccccc1N1CCNCC1=O` (stereo partly shown) [Compound 527] were, in that order, under 1000 nM and under 1000 nM.
The like results for `CN1CCN(c2ccccc2[C@H]2S[C@](C)(CC(=O)N3CCC(n4c(=O)[nH]c5ncccc54)CC3)C(=O)N2CCC(C)(C)C)CC1` [Compound 380] were, in that order, under 1000 nM and under 1000 nM.
The like results for `CCCN1C(=O)[C@H](CC(=O)N2CCC(n3c(=O)[nH]c4ncccc43)CC2)SC1c1cccc(F)c1N1CCN(C(C)(C)C)CC1` (stereo partly shown) [Compound 538] were, in that order, under 1000 nM and under 1000 nM.
`CC(C)(C)CCN1C(=O)[C@H](CC(=O)N2CCC(N3CCc4ccccc4NC3=O)CC2)SC1c1cccc(F)c1C1CCN(C2CCC2)CC1` (stereo partly shown) [Compound 558]: the inhibition constant (Ki) in experiment [1] was under 1000 nM.
Regarding `CC(C)CCN1C(=O)C(CC(=O)N2CCC(N3Cc4ccccc4NC3=O)CC2)S(=O)(=O)C1c1ccccc1` (stereo not shown) [Compound 122], the IC50 at endogenous CGRP receptor was over 5000 nM. Further, in experiment [1], the Ki was under 1000 nM.
The like results for `Cc1cc(C2SC(CC(=O)N3CCC(N4CCc5ccccc5NC4=O)CC3)C(=O)N2CC2CCCCC2)cc2cn[nH]c12` (stereo not shown) [Compound 20] were, in that order, under 1000 nM and under 1000 nM.
Regarding `CC(C)CCN1C(=O)C(CC(=O)N2CCC(N3Cc4ccccc4NC3=O)CC2)SC1c1cccnc1` (stereo not shown) [Compound 182], the IC50 on endogenous CGRP receptor was under 1000 nM. Besides, the Ki in experiment [1] is under 1000 nM.
Take `CN1CCN(c2ccc(F)cc2C2SC(CC(=O)N3CCC(n4c(=O)[nH]c5ccccc54)CC3)C(=O)N2CCC(C)(C)C)CC1` (stereo not shown) [Compound 354]: the IC50 on endogenous CGRP receptor was under 1000 nM. For the same molecule, the inhibition constant Ki in experiment [1] was under 1000 nM.
With `CC(C)N1CCN(c2c(F)cccc2C2SC(CC(=O)N3CCC(N4CCc5ccccc5NC4=O)CC3)C(=O)N2CCC(C)(C)C)CC1` (stereo not shown) [Compound 340], at endogenous CGRP receptor, the IC50 is over 5000 nM. Further, the Ki in experiment [1] is over 5000 nM.
Regarding `CN1CCN(c2ccccc2[C@@H]2SC(CC(=O)N3CCCCC3)C(=O)N2CCC(C)(C)C)CC1` (stereo partly shown) [Compound 105], on endogenous CGRP receptor, the IC50 was over 5000 nM. Also, the Ki in experiment [1] was over 5000 nM.
As to `CC(C)(C)CCN1C(=O)[C@H](CC(=O)N2CCC(n3c(=O)[nH]c4ncccc43)CC2)SC1c1cccc(F)c1NCCN1CCCCC1` (stereo partly drawn) [Compound 532, 1-(1-(2-((5S)-2-(2-(2-(Piperidin-1-yl)ethylamino)-3-fluorophenyl)-3-(3,3-dimethylbutyl)-4-oxothiazolidin-5-yl)acetyl)piperidin-4-yl)-1H-imidazo[4,5-b]pyridin-2(3H)-one], the IC50 at endogenous CGRP receptor is under 1000 nM. Moreover, in experiment [1], the Ki is under 1000 nM.
With `COc1ccccc1C1SC(CC(=O)N2CCC(n3cc(-c4ccccc4)[nH]c3=O)CC2)C(=O)N1CCC(C)C` (stereo not shown) [Compound 64], the IC50 on endogenous CGRP receptor lay within 1000 to 5000 nM. Further, the inhibition constant (Ki) in experiment [1] is under 1000 nM.
The like results for `Cc1ccc(C2SC(CC(=O)N3CCC(N4Cc5ccccc5NC4=O)CC3)C(=O)N2CCC(C)C)cc1C` (stereo not shown) [Compound 204] were, in that order, 1000 to 5000 nM and 1000 to 5000 nM.
Consider `CC(C)(C)CCN1C(=O)[C@H](CC(=O)N2CCC(n3c(=O)[nH]c4ncccc43)CC2)SC1c1cccc(F)c1N1CCC(c2ccncc2)CC1` (stereo partly shown) [Compound 556], for which the IC50 on endogenous CGRP receptor is under 1000 nM. For the same molecule, in experiment [1], the Ki was under 1000 nM.
For `CC(C)(C)CCN1C(=O)[C@H](CC(=O)N2CCC(N3CCc4ccccc4NC3=O)CC2)SC1c1cccc(F)c1N1CCC(c2ccncc2)CC1` (stereo partly shown) [Compound 557], the inhibitory constant (Ki) in experiment [1] was under 1000 nM.
For the molecule `CC(C)CCN1C(=O)C(CC(=O)N2CCC(N3Cc4ccccc4NC3=O)CC2)SC12CCC2` (stereo not shown) [Compound 275], the IC50 at endogenous CGRP receptor is over 5000 nM.
Still for that read-out and setting: as for `CCN1C(=O)C(CC(=O)N2CCC(N3Cc4ccccc4NC3=O)CC2)SC1c1ccccc1` (stereo not shown) [Compound 177], the figure is 1000 to 5000 nM; as for `CN1CCN(c2ccccc2[C@H]2SC(CC(=O)N3CCCCC3)C(=O)N2CCC(C)(C)C)CC1` (stereo partly shown) [Compound 97], over 5000 nM.
On to `CN1CCN(c2c(F)cccc2C2SC(CC(=O)N3CCC(n4cc(-c5ccccc5)[nH]c4=O)CC3)C(=O)N2CCC(C)(C)C)CC1` (stereo not shown) [Compound 325], for which the IC50 on endogenous CGRP receptor is under 1000 nM.
As to `CC(=O)Nc1ccc(C)cc1C1(O)CCN(C(=O)CC2SC(c3ccccc3)N(CCC(C)C)C2=O)CC1` (stereo not shown) [Compound 143], the IC50 on endogenous CGRP receptor was over 5000 nM.
As for `CN(C)[C@H]1CCN(c2ccccc2C2SC(CC(=O)N3CCC(n4c(=O)[nH]c5ncccc54)CC3)C(=O)N2CCC(C)(C)C)C1` (stereo partly shown) [Compound 406], the inhibition constant Ki in experiment [1] is under 1000 nM.
Regarding `CN1CCN(c2ccccc2C2SC(CC(=O)N3CCC(N4CCc5ccccc5NC4=O)CC3)C(=O)N2CCC(C)(C)C)CC1` (stereo not shown) [Compound 34], at endogenous CGRP receptor, the IC50 is under 1000 nM.
In the case of `CC(C)(C)CCN1C(=O)[C@H](CC(=O)N2CCC(n3c(=O)[nH]c4ncccc43)CC2)S[C@H]1c1cccc(F)c1N1CCC(O)C1` (stereo partly shown) [Compound 468], at endogenous CGRP receptor, the IC50 is under 1000 nM.
The same measure, in the same setting: as for `CCN1C(=O)C(CC(=O)N2CCC(N3CCc4ccccc4NC3=O)CC2)SC1c1ccccc1` (stereo not shown) [Compound 284], the figure is 1000 to 5000 nM; as for `CCCCN1CCN(c2ccccc2C2SC(CC(=O)N3CCC(N4Cc5ccccc5NC4=O)CC3)C(=O)N2CCC(C)(C)C)CC1` (stereo not shown) [Compound 364], over 5000 nM; as for `CN1CCN(c2ccccc2[C@@H]2SC(CC(=O)N3CCC(n4c(=O)[nH]c5ncccc54)CC3)C(=O)N2CCC(C)(C)C)CC1` (stereo partly shown) [Compound 274], under 1000 nM.
On the same count and under the same terms, the figure for `O=C(CC1SC(c2ccc(F)cc2F)N(CC2CCCCC2)C1=O)N1CCC(N2Cc3ccccc3NC2=O)CC1` (stereo not shown) [Compound 137] is under 1000 nM; for `CC(C)CCN1C(=O)C(CC(=O)N2CCC(N3Cc4ccccc4NC3=O)CC2)SC1CC(C)(C)C` (stereo not shown) [Compound 276] it is 1000 to 5000 nM.
For the molecule `CC(C)CCN1C(=O)C(CC(=O)N2CCC(n3c(=O)[nH]c4ccccc43)CC2)S[C@H]1c1ccccc1N1CCC(O)CC1` (stereo partly shown) [Compound 304], the Ki in experiment [1] was under 1000 nM.
As for `CC(C)CCN1C(=O)C(CC(=O)N2CCC3(CCc4ccccc43)CC2)SC1c1ccccc1` (stereo not shown) [Compound 167], the IC50 at endogenous CGRP receptor was over 5000 nM.
For `CC(C)CCN1C(=O)C(CC(=O)N2CCC3(CC2)C(=O)Nc2ccccc23)SC1c1ccccc1` (stereo not shown) [Compound 111], at endogenous CGRP receptor, the IC50 is over 5000 nM.

As usually defined, the IC50 is the concentration needed to halve the response being measured. As usually defined, the Ki is the dissociation constant of the complex between target and ligand, obtained from inhibition or displacement.
